Here are results for 1 molecule from PMC9617675 (Antiviral Research, 2022).

Structures are written as SMILES. Read-outs that look alike come from different tables or passages of the source.

The data set relates to SARS-CoV-2 Delta variant. Particulars: for lung histopathology (H&E): day 2 and day 4; for brain histopathology (H&E): day 4.
Setting [1] is: day 4, both 100 mpk and 200 mpk groups.

Turning to `O=C[C@H](C[C@@H]1CCNC1=O)NC(=O)[C@H](CC1CCCCC1)NC(=O)c1cc2ccccc2[nH]1` [FB2001], for the setting “100 mpk and 200 mpk groups, vs day 0”, the “change in the body weight of the mice” value is listed as “no significant change”. Further, the “reduction of lung viral load” value (100 mpk, day 2, vs vehicle) is given as 1.02 log10 copies/g. Moreover, for the setting “100 mpk”, the “lung histopathology (H&E)” value is “mild interstitial inflammatory cell infiltration” and the “brain histopathology (H&E)” value is recorded as “some neurons were denatured”. Moreover, for the setting “100 mpk, day 4, vs vehicle”, the “reduction of brain viral load” value was 2.37 log10 copies/g and the “reduction of lung viral load” value worked out at 0.67 log10 copies/g. In addition, where the note is “200 mpk, day 2, vs vehicle”, the “reduction of lung viral load” value turned out to be 1.60 log10 copies/g and the “reduction of virus titer in lung” value was found to be 3.57 log10 PFU/g. Moreover, where the note is “200 mpk”, the “lung histopathology (H&E)” value was “decreased inflammation and normal alveolar spaces”; the “brain histopathology (H&E)” value was “Neuronal cells were neatly arranged and abundant”. Moreover, where the note is “200 mpk, day 4, vs vehicle”, the “reduction of brain viral load” value came to 5.26 log10 copies/g and the “reduction of lung viral load” value came to 1.14 log10 copies/g. Under setting [1], the “brain immunohistochemistry staining of viral NP” value was “nearly cleared” and the “lung immunohistochemistry staining of viral NP” value is listed as “almost cleared”. For the same molecule, for the setting “mouse, in vivo”, the “Viral titer in brain, Mean” value is listed as “below the detection limit” and the “Viral titer in lung, Mean” value is listed as “below the detection limit”.
